Laboratory results from patent US5593970A, “Heterocyclic anthracycline analogs” (priority 1994, dated 1997).
Read-outs that look alike come from different tables or passages of the source.

Legend:
SKOV3 = assay: Microculture tetrazolium assay; format: cell-based; settings: Homo sapiens, SK-OV-3, SKOV3; read-out: IC50
SKVLB = assay: Microculture tetrazolium assay; format: cell-based; settings: for VLB/OV3: IC50 ratio SKVLB/SKOV3; for IC50: SKVLB, read-out: IC50
Leukemia = assay: NCI assay, average per cancer type; settings: for CC50: 48 h, read-out: Average LOG10 LC50; for GI50: read-out: Average LOG10 GI50
NSC Lung = assay: NCI assay, average per cancer type; settings: Homo sapiens; for CC50: 48 h, read-out: Average LOG10 LC50; for GI50: read-out: Average LOG10 GI50
SC Lung = assay: NCI assay, average per cancer type; settings: Homo sapiens; for CC50: 48 h, read-out: Average LOG10 LC50; for GI50: read-out: Average LOG10 GI50
Colon = assay: NCI assay, average per cancer type; settings: Homo sapiens; for CC50: 48 h, read-out: Average LOG10 LC50; for GI50: read-out: Average LOG10 GI50
CNS = assay: NCI assay, average per cancer type; settings: Homo sapiens; for CC50: 48 h, read-out: Average LOG10 LC50; for GI50: read-out: Average LOG10 GI50
Melanoma = assay: NCI assay, average per cancer type; settings: Homo sapiens; for CC50: read-out: Average LOG10 LC50; for GI50: read-out: Average LOG10 GI50
Ovarian = assay: NCI assay, average per cancer type; settings: Homo sapiens; for CC50: 48 h, read-out: Average LOG10 LC50; for GI50: read-out: Average LOG10 GI50
Renal = assay: NCI assay, average per cancer type; settings: Homo sapiens; for CC50: 48 h, read-out: Average LOG10 LC50; for GI50: read-out: Average LOG10 GI50
solid tumors = assay: NCI assay, mean potency in solid tumors; settings: Homo sapiens; for GI50: read-out: Average LOG10 GI50, Mean Potency in solid tumors; for CC50: 48 h, read-out: Average LOG10 LC50, Mean Potency in solid tumors
tumor cell lines = assay: NCI sulforhodamine B assay, all cell lines; settings: for CC50 / IC100 / GI50: Homo sapiens; for CC50 / IC100: 48 h; for CC50: read-out: Log10 LC50, Mean / MG-MID, all cell lines (converted); for IC100: read-out: Log10 TGI, Mean / MG-MID, all cell lines; for GI50: read-out: Log10 GI50, Mean / MG-MID, all cell lines (converted)
T47D = assay: Microculture tetrazolium assay; format: cell-based; settings: Homo sapiens, read-out: IC50
LOX = assay: Microculture tetrazolium assay; format: cell-based
HT29 = assay: Microculture tetrazolium assay; format: cell-based; settings: Homo sapiens, HT-29, HT29; read-out: IC50

SMILES | IC50 (SKOV3) [µM] | IC50 (SKVLB) [µM] | CC50 (Leukemia) [µM] | GI50 (Leukemia) [µM] | CC50 (NSC Lung) [µM] | GI50 (NSC Lung) [µM] | CC50 (SC Lung) [µM] | GI50 (SC Lung) [µM] | CC50 (Colon) [µM] | GI50 (Colon) [µM] | CC50 (CNS) [µM] | GI50 (CNS) [µM] | CC50 (Ovarian) [µM] | GI50 (Ovarian) [µM] | CC50 (Renal) [µM] | GI50 (Renal) [µM] | GI50 (solid tumors) [µM] | CC50 (tumor cell lines) [µM] | IC100 (tumor cell lines) [µM] | GI50 (tumor cell lines) [µM] | other results
CCOC(=O)C1CC2=C(C(=O)c3c(c(O)c4ccccc4c3OC)C2=O)C(O[C@H]2C[C@H](NC(=O)C(F)(F)F)[C@H](O)[C@H](C)O2)O1 (mixture of isomers) [BCH-689, (1'S,1R,3S) and (1'S,1S,3R) Ethyl (6-hydroxy-11-methoxy-5,12-dioxo-1-(3,-trifluoroacetamido-1-daunosaminyl)-3,4,5,12-tetrahydroanthraceno[2,3-c]pyran-3-yl)formate] | 3.79 | 4.02 | < 100 | 15.5 | 41.7 | 13.5 | 42.7 | 11.5 | 38.9 | 11.2 | 40.7 | 12.9 | 42.7 | 11.5 | 37.2 | 11.2 | 12 | 45.7 | 26.3 | 12.6 | VLB/OV3 (SKVLB): 1.06; CC50 (Melanoma; 48 h): 41.7 µM; GI50 (Melanoma): 12.6 µM
CCOC(=O)[C@@H]1CC2=C(C(=O)c3c(cc4ccccc4c3OC(C)=O)C2=O)[C@@H](O)O1 (relative stereo) [BCH-657, Ethyl[1-hydroxy-11-acetoxy-5,12-dioxo-3,4-5,12-tetrahydroanthraceno(2,3-C)pyran-3-yl]formate] | 6.8 | 6.75 | > 100 | 0.437 | 11.5 | 1.12 | > 100 | 1.26 | 13.5 | 0.794 | 13.2 | 1.86 | 17.4 | 1.7 | 12 | 1.32 | 1.29 | 26.3 | 4.07 | 1.17 | VLB/OV3 (SKVLB): 0.99; IC50 (T47D): 13.1 µM; IC50 (LOX): 9.3 µM; IC50 (HT29): 2.28 µM; GI50 (Melanoma): 1.35 µM; antiproliferative and cytotoxic activity in words (tumor cell lines): strong antiproliferative (GI50) and potent cytotoxic (LC50) activities
CCOC(=O)C1Cc2c(O)c3c(c(O)c2CO1)C(=O)c1ccccc1C3=O (centres unmarked) [BCH-650] | 100 | 100 | > 100 | 61.7 | > 100 | > 100 | > 100 | > 100 | > 100 | > 100 | > 100 | 45.7 | > 100 | > 100 | > 100 | 52.5 | 52.5 | 100 | 100 | 79.4 | IC50 (T47D): 100 µM; IC50 (LOX; read-out: IC50): 100 µM; IC50 (HT29): 91.1 µM; GI50 (Melanoma; 48 h): > 100 µM; CC50 (Melanoma; 48 h): > 100 µM; CC50 (solid tumors): > 100 µM
COC(=O)[C@@H]1CC2=C(C(=O)c3cc4ccccc4cc3C2=O)[C@@H](O[C@H]2C[C@H](NC(=O)C(F)(F)F)[C@H](O)[C@H](C)O2)O1 [BCH-671] | 4.69 | 6.19 | > 100 | 1.82 | 30.2 | 4.57 | 55 | 2.51 | 15.8 | 1.91 | 42.7 | 4.27 | 33.9 | 3.63 | 23.4 | 2.82 | 2.95 | 29.5 | 7.76 | 2.88 | VLB/OV3 (SKVLB): 1.32; IC50 (T47D): 2.86 µM; IC50 (LOX; read-out: IC50): 2.61 µM; IC50 (HT29): 4.23 µM; CC50 (Melanoma; 48 h): 21.4 µM; GI50 (Melanoma): 2.09 µM; CC50 (solid tumors): 29.5 µM
COC(=O)[C@@H]1CC2=C(C(=O)c3cc4ccccc4c(O)c3C2=O)[C@@H](O[C@H]2C[C@H](NC(=O)C(F)(F)F)[C@H](O)[C@H](C)O2)O1 [BCH-683] | – | – | < 100 | 1.82 | 28.2 | 3.02 | 8.32 | 1.86 | 10.5 | 1.29 | 31.6 | 3.39 | 15.8 | 2.09 | 26.3 | 3.16 | 2.09 | 21.9 | 5.75 | 2.14 | CC50 (Melanoma; 48 h): 7.08 µM; GI50 (Melanoma): 1.12 µM; CC50 (solid tumors): 15.5 µM
CC(=O)C1Cc2c(O)c3c(c(O)c2CO1)C(=O)c1ccccc1C3=O (centres unmarked) [BCH-688, Methyl-(5,12-dihydroxy-6,11-dioxo-3,4,6,11-tetrahydroanthraceno-[2,3-c]pyran-3-yl)ketone] | 100 | 100 | > 100 | 36.3 | > 100 | > 100 | > 100 | > 100 | > 100 | > 100 | > 100 | 53.7 | > 100 | 75.9 | > 100 | > 100 | 52.5 | 100 | 97.7 | 75.9 | IC50 (T47D): 100 µM; IC50 (LOX; read-out: IC50): 100 µM; IC50 (HT29): 100 µM; CC50 (Melanoma; 48 h): > 100 µM; GI50 (Melanoma): > 100 µM; CC50 (solid tumors): > 100 µM
